From publication PMC7957705 (Molecules, 2021)
Where two headings read alike, the source gives them in different places. Where a SMILES comes first, the peptide text is derived from it. Bridges are numbered along the chain shown (N, C = ends). Triazole bridges read from a SMILES are 1,4-linked. Where no end group is shown, it is not given here. [ ]: non-standard residue; d: D form. The star is where a group is joined. Benzoyl(4-guanidino) = N=C(N)Nc1ccc(C(=O)*)cc1; Gua = N-terminal guanidino group, N=C(N)*; Aha = [N-]=[N+]=NCC[C@H](N)C(=O)O; β3hV = CC(C)[C@H](N)CC(=O)O; hCys = N[C@@H](CCS)C(=O)O; Orn = NCCC[C@H](N)C(=O)O; Pra = C#CC[C@H](N)C(=O)O

Assays:
human plasma = conditions: 37 °C, up to 300 min
rat plasma = conditions: 37 °C, up to 300 min
treated animals = conditions: cited from earlier work
[1] = type: in vitro ADME; conditions: for half-life: plasma
Method: Plasmas from 3 species (including commercially available human healthy donors) were adjusted to pH 7.4 if necessary. Incubations were performed at a concentration of 1 µM of the compound at 37 °C (in the presence of a final concentration of DMSO of 2.5% v/v. The incubations were stopped at 0, 15, 30, 60 and 120 min by methanol. Each time point was run in sextuplets. The sampling plates were then centrifuged (2500 rpm, 45 min, 4 °C) and the supernatants pooled. Samples were analyzed for parent compound by LC-MS/MS. The percentage of parent compound remaining at each time point relative to the 0 min sample is then calculated from LC-MS/MS peak area ratios. Then, the stability in plasma was evaluated by incubating human, rat or mouse plasma with the compound(s) as follows: the product (0.1 µM in TRIS buffer pH 7.4 0.1% BSA) was incubated with the plasma at 37 °C. The disappearance of the product was measured at 15, 45, 120, 240 and 300 min by mass spectrometry. Incubations were carried out in a robot Star (Hamilton France, Villebon-sur-Yvette, France). At each sampling time, 50 µL of the reaction medium was removed and diluted with 100 µL of acetonitrile. After centrifugation (20 min at + 4 °C, 4000 rpm), 75 µL of the supernatants was transferred into a 384 well injection plate. Ten microliters were injected onto UPLC coupled with a XEVO TQS mass spectrometer system (Waters, Milford, MA, USA). The unchanged product is quantified using a reference sample (0.1 µM) prepared during the incubation process. A second reference sample at 0.01 µM is prepared in the same conditions to verify the linearity of the detection method. The peak height (or area) is measured to calculate the half-life of the compound.

human MCH-R1 [2] = biological target: T1, human MCH-R1 (Homo sapiens, UniProt Q99705); experiment: MCH-induced cytosolic Ca2+ ion mobilization, antagonist effect; type: cell-based; conditions: for Ki: antagonism of MCH-induced cytosolic Ca2+ mobilization, read-out: Ki (functionality, antagonism at MCH-R1)
T1 construct: expressed in transfected cells
Method: The functional assay was run onto cells expressing the hMCH-R1 receptor, as described in Wang et al.. In brief, the cells are suspended in DMEM buffer (Invitrogen), then distributed in microplates at a density of 4.104 cells/well. The fluorescent probe (Fluo4 Direct, Invitrogen) mixed with probenecid in Hanks’ Balanced Salt solution (HBSS) (Invitrogen) complemented with 20 mM HEPES (Invitrogen) (pH 7.4) is then added into each well and equilibrated with the cells for 60 min at 37 °C, then 15 min at 22 °C. Then, the assay plates are positioned in a microplate reader (CellLux, PerkinElmer) which is used for the addition of the test compound, reference agonist or HBSS buffer (basal control), and the measurements of changes in fluorescence intensity, which varies proportionally to the free cytosolic Ca^2+ ion concentration. For stimulated control measurements, MCH at 300 nM is added in separate assay wells. The results are expressed as a percentage of the control response to 300 nM MCH. The standard reference agonist is MCH, which is tested in each experiment at several concentrations to generate a concentration-response curve from which its EC50 value is calculated. For the antagonist effect, the results are expressed as a percentage inhibition of the control response to 30 nM MCH, which was added to all tested wells and controls 5 min after the candidate products.

human MCH-R1 [3] = biological target: T1, human MCH-R1; design: method as in PMID 19619599, PMID 23267345; conditions: cited from earlier work
human MCH-R1 [4] = biological target: T1, human MCH-R1; experiment: Binding displacement of [125I]-[Phe13,Tyr19]-MCH at membranes expressing human MCH-R1
Method: Stable cell lines were obligatory for all receptor programs. We cloned the human receptor and established the cell line as previously described. In brief, HEK293 (HEK) cells were grown in Dulbecco’s Modified Eagle medium (DMEM) supplemented with 10% fetal calf serum, 2 mM glutamine, 100 IU/mL penicillin and […] streptomycin. They were seeded at 5 × 10^6 cells in T75 cm^2 culture flasks. One day later, they were transfected with […] of the pcDNA3.1 (Invitrogen, Groningen, The Netherlands) containing the human MCH-R1 using lipofectamine (Life Technologies, Cergy Pontoise, France), as previously described. One day later, cells were trypsinized, resuspended in a complete DMEM medium containing […] of geneticin and seeded at different dilutions in 96-well plates which were kept for 2 to 3 weeks in a humidified CO2 incubator. At the end of the selection period, isolated clones were picked up, amplified, and further characterized by cyclic AMP experiments. For each cell line, one positive clone was subcloned before being used for all of the cyclic AMP, [^35S]-GTPγS and receptor binding experiments necessary to characterize them. The stable HEK293 cell line expressing the human MCH-R1 was HEK-hMCH-R1.
Membrane preparations were classically made as previously described. In brief, the HEK-hMCH-R cell line was grown to confluency, harvested in PBS buffer containing 2 mM EDTA and centrifuged at 10,000× g for 5 min (4°C). The resulting pellet was suspended in 20 mM Hepes buffer (pH 7.5), containing 5 mM EGTA and homogenized using a Kinematica polytron. The homogenate was then centrifuged (95,000× g, 30 min, 4 °C) and the resulting pellet was suspended in 50 mM HEPES buffer (pH 7.5), containing 10 mM MgCl2 and 2 mM EGTA. Aliquots of membrane preparations were stored at −80 °C until use. Binding has been described in numerous publications and the test was based on Mac Donald et al.’s description. […] Nonspecific binding is determined in the presence of 0.1 μM MCH. […] The filters are dried and then counted for radioactivity in a scintillation counter (Topcount, Packard) using a scintillation cocktail (Microscint 0, Packard). The results are expressed as percentage inhibition of the control radioligand specific binding. The standard reference compound is MCH, which was tested in each experiment at 8 concentrations to obtain a competition curve from which its IC50 is calculated. The high level of assay robustness and reproducibility of each control monitored over several decades (internal data base, Eurofins) and included in every assay ensure results’ reliability even when performed only twice. […]

[5] = Stability and metabolite identification on rat hepatocytes; type: in vitro ADME; conditions: 20 µM, 5 h
Method: (§1) The stability of the compound was studied on hepatocyte cultures from Wistar rats and CD1 mice. The compound was incubated at 20 µM in the presence of 1.106 cells/mL for 5 h. The incubation was then stopped with acetonitrile (v/v) and the supernatant, after a brief centrifugation (2500 rpm, 5 min 4 °C) was submitted to LC-MS analysis, using a THERMO […] coupled to a Waters Acquity UPLC System equipped with a Waters Acquity UPLC C18 100 × 2.1 mm 1.7 µm column.

[6] = Stability and metabolite identification on mouse hepatocytes; type: in vitro ADME; conditions: 20 µM, 5 h
Method: as §1

T1 sequence (Q99705 whole entry): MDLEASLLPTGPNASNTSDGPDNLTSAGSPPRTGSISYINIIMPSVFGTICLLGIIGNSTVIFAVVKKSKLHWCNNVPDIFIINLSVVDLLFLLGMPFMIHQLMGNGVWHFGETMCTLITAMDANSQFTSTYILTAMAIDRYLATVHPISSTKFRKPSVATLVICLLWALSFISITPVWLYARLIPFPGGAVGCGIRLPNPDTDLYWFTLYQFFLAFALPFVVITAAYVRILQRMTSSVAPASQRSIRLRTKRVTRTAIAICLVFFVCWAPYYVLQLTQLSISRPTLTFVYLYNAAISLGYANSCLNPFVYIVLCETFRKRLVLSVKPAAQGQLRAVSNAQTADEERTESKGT

Gua-N3-hAla-Nle-Leu-Arg-βhVal-Arg-Pro-hPra-Trp
not cleaved (human plasma): not metabolized at all, 100% of the initial dose found at 300 (5 h) | not cleaved (rat plasma): not metabolized at all, 100% of the initial dose found at 300 (5 h)

COc1cc(-n2cnc3cc(-c4ccc(Cl)cc4)sc3c2=O)ccc1OCCN1CCCC1 [GW803430]
behavioral concerns (treated animals; in vivo): some behavioral concerns have been reported

Gua-Glu-Met-Leu-Arg-Val-Arg-4-NH2-Pro-Orn-Trp
not cleaved (human plasma): not metabolized at all, 100% of the initial dose found at 300 (5 h)

COCC1=C(C(=O)OC)[C@H](c2ccc(F)c(F)c2)N(C(=O)NCCCN2CCC(c3cccc(NC(C)=O)c3)CC2)C(=O)N1 [SNAP-7941]
behavioral concerns (treated animals): some behavioral concerns have been reported

pGua-[N3-hAla-MLR-βhVal-RP-hPra]-W-OH
not cleaved (human plasma): not metabolized at all, 100% of the initial dose found at 300 (5 h) | not cleaved (rat plasma): not metabolized at all, 100% of the initial dose found at 300 (5 h)

CSCC[C@@H]1NC(=O)[C@@H](NC(=O)c2ccc(NC(=N)N)cc2)CSSC[C@@H](C(=O)N[C@@H](Cc2c[nH]c3ccccc23)C(=O)O)NC(=O)[C@@H]2CCCN2C(=O)[C@H](CCCNC(=N)N)NC(=O)[C@H](Cc2ccc(O)cc2)NC(=O)[C@H](C(C)C)NC(=O)[C@H](CCCNC(=N)N)NC(=O)[C@H](CC(C)C)NC1=O [S38151, p-guanidinobenzoyl-Des-Gly(10)-MCH(7-17), reference compound] ({Benzoyl(4-guanidino)}-CMLRVYRPCW-OH; disulfide 1-9; N-terminus and C-terminus assumed)
half-life ([1]; human, pH 7.4): 0.233 ± 0.0167 h | half-life ([1]; mouse, pH 7.4): 0.383 ± 0.03 h | half-life ([1]; rat, pH 7.4): 1 ± 0.05 h | Ki (human MCH-R1 [2]): 5 nM | affinity at the human MCH-R1 receptor (human MCH-R1 [3]): low nanomolar range

GPS11373: S-S bridge: Gua-Cys-Met-Leu-Arg-Val-Arg-Pro-Cys-Trp (Gua-CMLRVRPCW; disulfide 1-8 (inferred))
binding affinity constant (human MCH-R1 [4]; Table 1, S-S bridge pseudopeptides, 2 × 2 independent duplicates, read-out: Km): 100 nM

CN(C)c1nc(NC2CCC(NCCc3ccc(Br)cc3OC(F)(F)F)CC2)nc2ccccc12 (centres unmarked) [ATC0065]
behavioral concerns (treated animals): some behavioral concerns have been reported

Gua-Glu-Ethionine-Leu-Arg-Val-Arg-Pro-Orn-Trp
not cleaved (human plasma): not metabolized at all, 100% of the initial dose found at 300 (5 h)

Gua-Glu-Met-Leu-Arg-Val-Arg-Pro-Orn-Trp
not cleaved (human plasma): not metabolized at all, 100% of the initial dose found at 300 (5 h)

CSCC[C@H](NC(=O)[C@H](C)NC(=O)c1ccc(NC(=N)N)cc1)C(=O)N[C@@H](CC(C)C)C(=O)N[C@@H](CCCNC(=N)N)C(=O)N[C@H](C(=O)N[C@@H](CCCNC(=N)N)C(=O)N1CCC[C@H]1C(=O)N[C@@H](C)C(=O)N[C@@H](Cc1c[nH]c2ccccc12)C(=O)O)C(C)C [GPS13670] ({Benzoyl(4-guanidino)}-AMLRVRPAW-OH)
Ki (human MCH-R1 [2]): 30 nM | affinity at the MCH-R1 receptor (in words) (human MCH-R1 [4]): poor binders

CSCC[C@@H]1NC(=O)[C@@H](NC(=O)c2ccc(NC(=N)N)cc2)CCC(=O)NCCC[C@@H](C(=O)N[C@@H](Cc2c[nH]c3ccccc23)C(=O)O)NC(=O)[C@@H]2CCCN2C(=O)[C@H](CCCNC(=N)N)NC(=O)[C@H](Cc2ccc(O)cc2)NC(=O)[C@H](C(C)C)NC(=O)[C@H](CCCNC(=N)N)NC(=O)[C@H](CC(C)C)NC1=O [GPS13695] ({Benzoyl(4-guanidino)}-EMLRVYRP[Orn]W-OH; lactam 1-9)
Ki (human MCH-R1 [2]): 0.13 nM

CSCC[C@@H]1NC(=O)[C@@H](NC(=O)c2ccc(NC(=N)N)cc2)CCn2cc(nn2)C[C@@H](C(=O)N[C@@H](Cc2c[nH]c3ccccc23)C(=O)O)NC(=O)[C@@H]2CCCN2C(=O)[C@H](CCCNC(=N)N)NC(=O)C[C@H](C(C)C)NC(=O)[C@H](CCCNC(=N)N)NC(=O)[C@H](CC(C)C)NC1=O [GPS15290, pGua-[N3-hAla-MLR-βhVal-RP-hPra]-W-OH] ({Benzoyl(4-guanidino)}-[Aha]MLR[β3hV]RP[Pra]W-OH; triazole 1-8)
stability on hepatocytes [5]: mild stability | stability in plasma (in words) ([1]; human): most stable compound | half-life ([1]; human): ≥ 5 h | initial dose remaining after incubation in mice plasma ([1]; mouse): ~20% | stability in plasma (in words) ([1]; mouse): most stable compound | half-life ([1]; mouse): 2.88 ± 0.15 h | stability in plasma (in words) ([1]; rat): most stable compound | half-life ([1]; rat): ≥ 5 h | antagonistic functionality (in words) (human MCH-R1 [2]): high picomolar range | Ki (human MCH-R1 [2]): 0.028 nM | stability on hepatocytes [6]: mild stability | affinity at the MCH-R1 receptor (in words) (human MCH-R1 [4]): superior affinity

CCSCC[C@@H]1NC(=O)[C@@H](NC(=O)c2ccc(NC(=N)N)cc2)Cc2cn(nn2)CC[C@@H](C(=O)N[C@@H](Cc2c[nH]c3ccccc23)C(=O)O)NC(=O)[C@@H]2CCCN2C(=O)[C@H](CCCNC(=N)N)NC(=O)[C@H](C(C)C)NC(=O)[C@H](CCCNC(=N)N)NC(=O)[C@H](CC(C)C)NC1=O [GPS13671] ({Benzoyl(4-guanidino)}-[Pra][hCys](Et)LRVRP[Aha]W-OH; triazole 1-8)
Ki (human MCH-R1 [2]): 8 nM
